PMC7795089, “Antimalarials and Phytotoxins from Botryosphaeria dothidea Identified from a Seed of Diseased Torreya taxifolia” (Molecules, 2020)
Like-named read-outs stand apart in the source and are kept apart here.

Legend:
[1] = In vitro cytotoxicity assay (neutral red), Vero cells; format: cell-based; details: African green monkey, Vero cells (kidney fibroblasts)
Description: (§1) Cells were seeded to the wells of a 96-well plate at a density of 25,000 cells/well and incubated for 24 h. Samples at different concentrations were added and plates were again incubated for 48 h. The number of viable cells was determined by using neutral red dye and IC50 values were obtained from dose response curves. Doxorubicin was used as a positive control.

[2] = In vitro cytotoxicity assay (neutral red), SK-MEL; format: cell-based; details: human, SK-MEL cells (malignant melanoma), 48 h incubation, read-out: Cytotoxic activity IC50, SK-MEL
Description: as §1

[3] = In vitro cytotoxicity assay (neutral red), KB; format: cell-based; details: human, KB cells (oral epidermal carcinoma), 48 h incubation, read-out: Cytotoxic activity IC50, KB
Description: as §1

[4] = In vitro cytotoxicity assay (neutral red), BT-549; format: cell-based; details: human, BT-549 cells (breast ductal carcinoma), 48 h incubation, read-out: Cytotoxic activity IC50, BT-549
Description: as §1

[5] = In vitro cytotoxicity assay (neutral red), SK-OV-3; format: cell-based; details: human, SK-OV-3 cells (ovarian carcinoma), 48 h incubation, read-out: Cytotoxic activity IC50, SK-OV-3
Description: as §1

[6] = In vitro cytotoxicity assay (neutral red), LLC-PK11; format: cell-based; details: pig, 48 h incubation, read-out: Cytotoxic activity IC50, LLC-PK11
Description: as §1

[7] = system: Bacillus subtilis; design: method as in PMID 30935798; details: enantiomers and racemate of compound 2; cited from earlier work
[8] = system: human leukemia HL-60 cells; design: method as in PMID 30935798; details: enantiomers and racemate of compound 2; comparable to positive control irinotecan; cited from earlier work
[9] = system: Plasmodium falciparum D6 (chloroquine-sensitive) strain; assay: In vitro antiplasmodial assay, chloroquine-sensitive (D6) clone; format: cell-based; details: for IC50: Plasmodium falciparum
[10] = system: Plasmodium falciparum W2 (chloroquine-resistant) strain; assay: microbe, parasite or virus in culture; format: cell-based; details: for IC50: Plasmodium falciparum
[11] = system: Plasmodium; design: method as in PMID 32043422; details: cited from earlier work
[12] = D6, read-out: Chloroquine-Sensitive (D6)-Clone IC50
[13] = W2, read-out: Chloroquine-Resistant (W2)-Clone IC50

## C[C@@H]1CC[C@H]2[C@@H](C)C(=O)O[C@@H]3O[C@@]4(C)CC[C@@H]1[C@]32OO4 [Artemisinin]
[1]
  IC50 at 48 h: > 4.76 µg/mL

## COc1cccc2c1C(=O)c1c(O)c3c(c(O)c1C2=O)C[C@@](O)(C(=O)CO)C[C@@H]3O[C@H]1C[C@H](N)[C@H](O)[C@H](C)O1 [Doxorubicin]
[2]
  IC50 at 48 h: 1290 nM
[3]
  IC50 at 48 h: 2120 nM
[4]
  IC50 at 48 h: 1830 nM
[5]
  IC50 at 48 h: 1470 nM
[6]
  IC50 at 48 h: 1280 nM

## CC1=CC(=O)C2(OC2C(=O)CC(C)C)C(=O)N1 (stereo not shown) [Compound 2, flavipucine]
[7]
  antibacterial activity against Bacillus subtilis: moderate antibacterial activity
[8]
  cytotoxic activity against human leukemia HL-60 cells: strong cytotoxic activity

## CCN(CC)CCCC(C)Nc1ccnc2cc(Cl)ccc12 (stereo not shown) [Chloroquine]
[9]; [12]
  IC50: 0.016 µg/mL
[9]; D6, read-out: Chloroquine-Sensitive (D6)-Clone IC50 (µM, in parentheses)
  IC50: 0.03 µM
[10]; [13]
  IC50: 0.16 µg/mL
[10]; W2, read-out: Chloroquine-Resistant (W2)-Clone IC50 (µM, in parentheses)
  IC50: 0.31 µM
[1]
  IC50 at 48 h: > 4.76 µg/mL

## C\C=C(/C=C(C)/C=C/C=C/C=C(\C)C(=O)[C@H]1C(=O)N[C@]2(O)CCO[C@H]12)C(=O)OC [lucilactaene]
[11]
  antiplasmodial activity: potent antiplasmodial activity

## C\C=C(/C=C(C)/C=C/CC/C=C(\C)C(=O)C1=CC(C)(OC)NC1=O)C(=O)OC (stereo not shown) [Compound 3, dothilactaene A]
[9]; P. falciparum D6, concentration causing 50% growth inhibition, highest concentration tested […]
  Chloroquine-Sensitive (D6)-Clone IC50: inactive
[9]; [12]
  IC50: > 4.76 µg/mL
[10]; P. falciparum W2, concentration causing 50% growth inhibition, highest concentration tested […]
  Chloroquine-Resistant (W2)-Clone IC50: inactive
[10]; [13]
  IC50: > 4.76 µg/mL
[1]
  IC50 at 48 h: > 4.76 µg/mL
